Data set [1] has as its system HIV-1. Briefly: HIV H9 cell assay, anti-HIV-1 activity. It counts as cell-based. Conditions: Human immunodeficiency virus 1, H9, 168 h, read-out: EC50 (Effective Concentration which protects cells from viral cytopathic effects). From the text:
Another test system utilized to evaluate the invention compounds is called HIV H9 assay. The HIV H9 cell assay measures the inhibitor concentration required to suppress HIV-1 virus replication. In this system, viral growth occurs through multiple rounds of the life-cycle. Any suppression of the replication kinetics results in a geometric decrease in virus production. As a result, this assay is a sensitive means of measuring the ability of a compound to inhibit HIV-1 viral replication.
(§1) The H9 T-cell line is batch infected with HIV virus at an M0I of 0.01. After 2 hours absorption, the cells are washed, resuspended in RPMI-1640/10% fetal calf serum, and seeded at […] of a 96-well plate. A duplicate plate of uninfected H9 cells is prepared for the cytotoxicity assay. Drugs are serially diluted 1/3.16 in DMSO, transferred to media at an 8× concentration, and then added to the cultures in triplicate. The final DMSO concentration of 0.002 (0.2%).
(§2) Viral production is measured by RT assay and cytotoxicity is measured by XTT assay at 7 days post-infection. The RT assay is performed as a modification of Borroto-Esoda and Boone, J. Virol., 1991;65:1952-1959 and quantitated using a Molecular Dynamics Phosphoimager with Imagequant software. The XTT assay is performed as a modification of Roehm, et al., J. Immuno. Methods., 1991;142:257-265 and quantitated using a molecular Devices Thermomax plate reader with Softmax software.
(§3) Data is electronically transferred to a Microsoft Excell spreadsheet for analysis. The RT assay values equivalent to 50% and 90% inhibition of virus production are calculated from the untreated controls. The concentrations of inhibitor required to produce these values (IC50 and IC90) are interpolated from data points flanking these RT activities. The XTT assay values equivalent to 50% cytotoxicity are calculated from the untreated controls. The concentrations of inhibitor required to produce this value are interpolated from data points flanking these XTT values.

A short description of data set [2]: H9 cell cytotoxicity (XTT assay, uninfected cells). It counts as cell-based. Conditions: human, drug alone, read-out: IC50 (Inhibitory Concentration where drug alone inhibits cell growth). As to the method:
as §1, §2, §3

For data set [3], the target named is T1, HIV-1 Nucleocapsid Protein (NCp7) (Human immunodeficiency virus type 1 group M subtype B, UniProt P12493).
T1 construct: The NCp7 protein containing 2 Zn-fingers and 2 Zn ions is incubated with drug
Briefly: Zinc extrusion assay (TSQ fluorescence) from the zinc fingers of HIV-1 nucleocapsid protein (NCp7). It counts as biochemical. The settings on record: 10 μM compound, 2.8 μM NCp7, pH 7.4, 26° C., 90 minutes. An excerpt: The compounds of the present invention cause the extrusion of zinc from the nucleocapsid protein (NCp7) of HIV-1. The NC protein is highly conserved among all retroviruses (South T., Blake P., et al., Biochemistry, 1990;29:7786) and is essential for viral infectivity (Aldovini A. and Young R., J. Virology, 1990;64:1920 and Gorelick R., Nigida S., et al., J. Virology, 1990;64:3207). The zinc is normally held in NC proteins by 1 or 2 zinc fingers. In the case of HIV-1, 2 zinc fingers are present (Summers M., South T., et al., Biochemistry, 1990;29:329) and are involved specifically with the PSI site on viral RNA which controls the packaging of viral RNA. Interference of this packaging causes the formation of non-infectious virions (Dannull J., Surovoy A., et al., EMBO, 1994;13:1525). It has previously been shown that compounds that cause zinc extrusion have potent anti-HIV activity in multiple cell lines and against all retroviruses (Rice W., Schaeffer C., et al., Nature, 1993;361:473).
A fluorescence-based assay has been developed to monitor the ejection of zinc from purified HIV-1 NCp7. The fluorophore, N-(6-methoxy-8-quinolyl)-p-toluenesulfonamide (TSQ), has an increased fluorescent signal upon bonding zinc ion in solution. The NCp7 protein containing 2 Zn-fingers and 2 Zn ions is incubated with drug causing the extrusion of Zn ions. The released Zn is then sequestered by the TSQ and the increased fluorescence monitored relative to control. […] Fluorescence (excitation 355 nm emission 400 nm) was monitored versus time. Controls were the NCp7 under assay conditions without drug, and apo NCp7 (no Zn) with drug. The % Zn extrusion was calculated based on the actual fluorescence measured divided by the fluorescence of all theoretical Zn extruded (5.6 μM)×100.
Table 1 below presents data for several invention compounds evaluated in the zinc extrusion assay described above.

Data set [4] is described as follows: CEM cell growth inhibition (XTT, noninfected cells). It counts as cell-based. The settings on record: human, CEM Cell Assay, drug alone, read-out: IC50 (Inhibitory Concentration where drug alone inhibits cell growth). As to the method: (§4) Yet another test system employed to determine antiviral activity is called the CEM cell assay.
(§5) T4 lymphocytes (CEM cell line) are exposed to HIV at a virus to cell ratio approximately 0.05, and plated along with noninfected control cells in 96-well microliter plates.
(§6) The candidate agent is dissolved in dimethyl sulfoxide (unless otherwise noted), then diluted 1:200 in cell culture medium. Further dilutions (half-log10) are prepared before adding to an equal volume of medium containing either infected or noninfected cells. Cultures are incubated at 37° in a 5% carbon dioxide atmosphere for 6 or 7 days. The tetrazolium salt, XTT, is added to all wells, and cultures are incubated to allow formazan color development by viable cells (J. National Cancer Institute, 1989;81:577-586). Individual wells are analyzed spectrophotometrically to quantitate formazan production, and in addition are viewed microscopically for detection of viable cells confirmation of protective activity.
(§7) Drug-tested virus-infected cells are compared with drug-treated noninfected cells and with other appropriate controls (untreated infected and untreated noninfected cells, drug-contain wells without cells, etc.) on the same plate. Data are reviewed in comparison with other tests done at the same time and a determination about activity is made.

The subject of data set [5] is HIV-1. Kind of data set: CEM cell assay, anti-HIV-1 activity. It counts as cell-based. Conditions: Human immunodeficiency virus 1, CCRF-CEM, HIV-1, 6 or 7 days, read-out: EC50 (Effective Concentration which protects cells from viral cytopathic effects).
Text: The test systems utilized to establish the antiviral activity of the arylthio compounds of this invention are well recognized in the art and are routinely employed for such purpose. For example, the assay utilized to evaluate the compounds activity against the HIV virus is that employed by the U.S. National Cancer Institute as described by Weislow O. S., et al., J. Natl. Cancer Inst., 1989;81:577-586, incorporated herein by reference.
The procedure is designed to detect agents acting at any stage of the virus reproductive cycle. The assay basically involves the killing of T4 lymphocytes by HIV. Small amounts of HIV are added to cells, and at least two complete cycles of virus reproduction are necessary to obtain the required cell killing. Agents which interact with virions, cells, or virus gene-products to interfere with viral activities will protect cells from cytolysis. The system is automated in several features to accommodate large numbers of candidate agents, and is generally designed to detect anti-HIV activity. However, compounds which degenerate or are rapidly metabolized in the culture conditions may not show activity in this screen.
as §4, §5, §6, §7

Molecules are shown by their SMILES.

In the case of `CC(=O)Nc1ccc(S)c(C(N)=O)c1` [Example 10, 5-Acetylamino-2-thiobenzamide], the EC50 with HIV-1 [1] was determined as 5.4 µM. Further, the CC50 at 168 h in data set [2] was over 100 µM.

`NS(=O)(=O)c1ccc(CNC(=O)c2ccccc2SSc2ccccc2C(=O)NCc2ccc(S(N)(=O)=O)cc2)cc1` [Example 12, 2,2'-Dithiobis[N-[[4-(aminosulfonyl)phenyl]methy]benzamide]]: the “% Zinc Extrusion Relative to Control” value in data set [3] is 27%. In data set [4], the CC50 is 21 µM. In addition, the EC50 in the data set with HIV-1 [5] is 0.59 µM.

Take `O=C(Nc1ccc(S(=O)(=O)Nc2ncccn2)cc1)c1ccccc1SSc1ccccc1C(=O)Nc1ccc(S(=O)(=O)Nc2ncccn2)cc1` [Example 15, 2,2'-Dithiobis[N-[4-[(2-pyrimidinylamino)sulfonyl]phenyl]-benzamide]]: the EC50 in the data set on HIV-1 [1] came out at 2 µM. Besides, the “% Zinc Extrusion Relative to Control” value in data set [3] is 72%. The CC50 at 168 h in data set [2] came out at 22 µM.

For the compound `O=C(N[C@@H](C(=O)O)c1ccccc1)c1ccccc1SSc1ccccc1C(=O)N[C@@H](C(=O)O)c1ccccc1` [Example 68, [R-(R*,R*)] (2-{2-[(Carboxy-phenyl-methyl)-carbamoyl]phenyldisulfanyl}-benzoylamino)-phenyl-acetic acid], the “% Zinc Extrusion Relative to Control” value in data set [3] amounted to 89%. For the same compound, the CC50 in data set [4] was over 100 µM. Also, in the data set with HIV-1 [5], the EC50 is 25 µM.

`NC(=O)c1cc(NC(=O)C(F)(F)F)ccc1SSc1ccc(NC(=O)C(F)(F)F)cc1C(N)=O` [Example 74]: in data set [3], the “% Zinc Extrusion Relative to Control” value came out at 59%. The CC50 in data set [4] turned out to be 67 µM. Besides, the EC50 in the data set with HIV-1 [5] came out at 6.3 µM.

Consider `NC(=O)c1cc(NC(=O)c2ccccc2)ccc1SSc1ccc(NC(=O)c2ccccc2)cc1C(N)=O` [Example 75, 2,2'-Dithiobis[5-(benzoylamino)-benzamide]], for which the “% Zinc Extrusion Relative to Control” value in data set [3] is 52%. For the same compound, in data set [4], the CC50 is 59 µM. The EC50 in the data set on HIV-1 [5] was 5.3 µM.

In the case of `O=C(O)CCNC(=O)c1ccccc1SSc1ccccc1C(=O)NCCC(=O)O` [Example 76, 3,3'-[Dithiobis(2,1-phenylenecarbonylimino)]bis-propionic acid], the “% Zinc Extrusion Relative to Control” value in data set [3] stood at 82%. Moreover, the CC50 in data set [4] was over 100 µM. Further, in the data set on HIV-1 [5], the EC50 turned out to be 6.2 µM.

Regarding `O=C(O)Cc1ccc(NC(=O)c2ccccc2SSc2ccccc2C(=O)Nc2ccc(CC(=O)O)cc2)cc1` [Example 108, (4-{2-[2-(4-Carboxymethyl-phenylcarbamoyl)-phenyldisulfanyl]-benzoylamino}-phenyl)-acetic acid], in data set [4], the CC50 is 61 µM. Also, the EC50 with HIV-1 [5] was 5.9 µM.

As for `CC(SSc1ccccc1C(=O)Nc1ccc(S(N)(=O)=O)cc1)C(=O)O` (centres unmarked) [Example 132, 2-[2-(4-Sulfamoylphenylcarbamoyl)phenyldisulfanyl]propionic acid], the “% Zinc Extrusion Relative to Control” value in data set [3] is on record as 70%. In data set [4], the CC50 is over 100 µM. The EC50 in the data set on HIV-1 [5] is 2.8 µM.

With `COC(=O)[C@H](CSSc1ccccc1C(=O)Nc1ccc(S(N)(=O)=O)cc1)NC(C)=O` [Example 133, 2-Acetylamino-3-[2-(4-sulfamoylphenylcarbamoyl)phenyldisulfanyl]-propionicacid, methyl ester], in data set [3], the “% Zinc Extrusion Relative to Control” value is recorded as 53%. Moreover, in data set [4], the CC50 stood at 69 µM. Further, the EC50 in the data set with HIV-1 [5] was determined as 6.7 µM.

For the compound `CC(=O)N[C@@H](CSSc1ccccc1C(=O)Nc1ccc(S(N)(=O)=O)cc1)C(=O)O` [Example 134, 2-Acetylamino-3-[2-(4-sulfamoylphenylcarbamoyl)phenyldisulfanyl]-propionic acid], the “% Zinc Extrusion Relative to Control” value in data set [3] came to 77%. Further, the CC50 in data set [4] is over 100 µM. Moreover, the EC50 in the data set on HIV-1 [5] stood at 6.9 µM.

In the case of `CC(SSc1ccccc1C(=O)Nc1ccc(S(N)(=O)=O)cc1)C(=O)NCC(=O)O` (centres unmarked) [Example 135, {2-[2-(4-Sulfamoylphenylcarbamoyl)phenyldisulfanyl]propionylamino}-acetic acid], the “% Zinc Extrusion Relative to Control” value in data set [3] turned out to be 40%. In addition, the CC50 in data set [4] is over 100 µM. Further, in the data set with HIV-1 [5], the EC50 was determined as 5.8 µM.

As to `COC(=O)c1ccccc1SSc1ccccc1C(=O)Nc1ccc(S(N)(=O)=O)cc1` [Example 137, 2-[2-(4-Sulfamoylphenylcarbamoyl)phenyldisulfanyl]benzoic acid, methyl ester], in data set [4], the CC50 worked out at 65 µM. Moreover, the EC50 in the data set with HIV-1 [5] stood at 8.6 µM.

On to `CC(C)(SSc1ccccc1C(=O)Nc1ccc(S(N)(=O)=O)cc1)C(N)C(=O)O` (centres unmarked) [Example 138, 2-Amino-3-methyl-3-[2-(4-sulfamoylphenylcarbamoyl)phenyldisulfanyl]-butyric acid], for which the CC50 in data set [4] is 66 µM. Moreover, the EC50 in the data set with HIV-1 [5] stood at 6.3 µM.

Regarding `COC(=O)[C@H](N)C(C)(C)SSc1ccccc1C(=O)Nc1ccc(S(N)(=O)=O)cc1` [Example 139, 2-Amino-3-methyl-3-[2-(4-sulfamoylphenylcarbamoyl)phenyldisulfanyl]-butyric acid, methyl ester], in data set [3], the “% Zinc Extrusion Relative to Control” value was 70%. Besides, the CC50 in data set [4] is over 100 µM. Moreover, the EC50 with HIV-1 [5] stood at 6.9 µM.

For `CN(C(=O)c1ccccc1SSc1ccccc1C(=O)N(C)c1ccc(S(N)(=O)=O)cc1)c1ccc(S(N)(=O)=O)cc1` [Example 142], the “% Zinc Extrusion Relative to Control” value in data set [3] is given as 84%. Also, in data set [4], the CC50 was over 100 µM. The EC50 in the data set on HIV-1 [5] turned out to be 17 µM.

Regarding `NS(=O)(=O)c1cc(Cl)ccc1SSc1ccc(Cl)cc1S(N)(=O)=O` [Example 148, 2,2'-Dithiobis[5-chloro]-benzenesulfonamide], in data set [3], the “% Zinc Extrusion Relative to Control” value turned out to be 92%. The CC50 in data set [4] was determined as 30 µM. Moreover, the EC50 in the data set with HIV-1 [5] is 12 µM.
